Values of other authors in PMC2933614, “Quantitative in vitro and in vivo pharmacological profile of CE-178253, a potent and selective cannabinoid type 1 (CB1) Receptor Antagonist” (BMC Pharmacology, 2010).

Tests used:
[1] = design: method as in PMID 12055133; conditions: 0.5 mg/kg; 2-AG-mediated hyperphagia; cited from earlier work
CB1 receptor = tested on: CB1 receptor; design: method as in PMID 17327489; conditions: cited from earlier work

SMILES	Attenuation of FI [1]	Receptor occupancy required for maximal weight loss efficacy (CB1 receptor)
Cc1c(C(=O)NN2CCCCC2)nn(-c2ccc(Cl)cc2Cl)c1-c1ccc(Cl)cc1 [SR141716A]	~ 50%	
C[C@H](NC(=O)C(C)(C)Oc1ccc(C(F)(F)F)cn1)[C@@H](Cc1ccc(Cl)cc1)c1cccc(C#N)c1 [taranabant]		60-90%
